ChEMBL document CHEMBL1221254, “Succinic acid amides as P2-P3 replacements for inhibitors of interleukin-1beta converting enzyme (ICE or caspase 1)” (Bioorg Med Chem Lett, 2010)
pIC50, pKi: −log10 of the molar value.

Columns and labels:
Caspase-1 = biological target: T1, Caspase-1 (Homo sapiens, UniProt P29466); experiment: Inhibition of human ICE
T1 sequence (P29466 whole entry): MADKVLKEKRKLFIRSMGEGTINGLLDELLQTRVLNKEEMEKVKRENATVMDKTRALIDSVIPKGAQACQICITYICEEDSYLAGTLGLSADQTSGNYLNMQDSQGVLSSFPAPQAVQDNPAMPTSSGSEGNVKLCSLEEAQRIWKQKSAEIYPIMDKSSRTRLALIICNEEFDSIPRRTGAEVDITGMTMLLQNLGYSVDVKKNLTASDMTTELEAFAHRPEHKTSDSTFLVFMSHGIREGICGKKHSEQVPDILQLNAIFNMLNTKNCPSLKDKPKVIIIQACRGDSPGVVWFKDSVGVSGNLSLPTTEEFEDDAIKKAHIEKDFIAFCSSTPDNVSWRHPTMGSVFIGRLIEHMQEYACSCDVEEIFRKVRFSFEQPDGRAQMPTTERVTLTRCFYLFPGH

[1] = Selectivity ratio of human ICE to caspase 8
[2] = Selectivity ratio of human ICE to caspase 3
[3] = Selectivity ratio of human ICE to caspase 6
[4] = Selectivity ratio of human ICE to caspase 4
Homo sapiens = species: Homo sapiens; experiment: Half life in human plasma

Structure (SMILES)	pIC50 (Caspase-1)	pKi (Caspase-1)	Selectivity ratio [1]	Selectivity ratio [2]	Selectivity ratio [3]	Selectivity ratio [4]	half-life (Homo sapiens) [h]
CC(C)[C@H](CC(=O)NCCn1ccc2ccccc21)C(=O)N[C@H](C=O)CC(=O)O	7.34	8.39	> 200	> 200	> 200	> 200	–
Cc1ccc2c(c1)ncn2CCNC(=O)C[C@H](C(=O)N[C@H](C=O)CC(=O)O)C(C)C	7.82	8.31	> 200	> 200	> 200	> 200	–
CC(C)[C@H](CC(=O)N(CCOc1ccccc1)C(C)C)C(=O)N[C@H](C=O)CC(=O)O	6.23	7.00	> 200	> 200	> 200	> 200	–
CCC(C)O[C@H]1OC(=O)C[C@@H]1NC(=O)[C@@H](CC(=O)NCCc1cccc2ncccc12)C(C)C (stereo partly specified)	–	–	> 200	> 200	> 200	> 200	7.7
CC(C)[C@H](CC(=O)NCCc1cccc2ncccc12)C(=O)N[C@H]1CC(=O)O[C@H]1OC1CCCC1	–	–	> 200	> 200	> 200	> 200	15.7
CC(C)[C@H](CC(=O)NCCCc1ccccc1)C(=O)N[C@H](C=O)CC(=O)O	–	–	> 200	> 200	> 200	> 200	–
CC(C)[C@H](CC(=O)NCCc1ccnc2ccccc12)C(=O)N[C@H](C=O)CC(=O)O	8.32	8.88	> 200	> 200	> 200	> 200	–
CC(C)[C@H](CC(=O)N1CCN(c2ccccc2)CC1)C(=O)N[C@H](C=O)CC(=O)O	5.11	5.99	> 200	> 200	> 200	> 200	–
Cc1cc2ncn(CCNC(=O)C[C@H](C(=O)N[C@H](C=O)CC(=O)O)C(C)C)c2cc1C	7.84	8.55	> 200	> 200	> 200	> 200	–
CC(C)[C@H](CC(=O)NCCc1cccc2nc(OCCN(C)C)ccc12)C(=O)N[C@H](C=O)CC(=O)O	6.99	7.78	> 200	> 200	> 200	> 200	–
CC(C)[C@H](CC(=O)NCCOc1ccccc1)C(=O)N[C@H](C=O)CC(=O)O	6.27	7.77	> 200	> 200	> 200	> 200	–
COc1ccc(CCCNC(=O)C[C@H](C(=O)N[C@H](C=O)CC(=O)O)C(C)C)cc1	6.39	7.15	> 200	> 200	> 200	> 200	–
CC(C)[C@H](CC(=O)NCCc1cncc2ccccc12)C(=O)N[C@H](C=O)CC(=O)O	7.92	8.37	> 200	> 200	> 200	> 200	–
Cc1cc2nc(C)n(CCNC(=O)C[C@H](C(=O)N[C@H](C=O)CC(=O)O)C(C)C)c2cc1C	8.04	8.90	> 200	> 200	> 200	> 200	–
CC(C)[C@H](CC(=O)NCCn1c(-c2cccnc2)nc2ccccc21)C(=O)N[C@H](C=O)CC(=O)O	7.58	8.41	> 200	> 200	> 200	> 200	–
CC(C)[C@H](CC(=O)NCCc1c[nH]c2ccc(F)cc12)C(=O)N[C@H](C=O)CC(=O)O	7.43	8.10	> 200	> 200	> 200	> 200	–
CCC(C)O[C@@H]1OC(=O)C[C@@H]1NC(=O)[C@@H](CC(=O)NCCc1cccc2ncccc12)C(C)C (stereo partly specified)	–	–	> 200	> 200	> 200	> 200	3.9
CC(C)[C@H](CC(=O)N(CCOc1ccccc1)CCC(=O)O)C(=O)N[C@H](C=O)CC(=O)O	6.94	8.03	> 200	> 200	> 200	> 200	–
CC(C)[C@H](CC(=O)NCCn1cnc2ccccc21)C(=O)N[C@H](C=O)CC(=O)O	7.47	7.70	> 200	> 200	> 200	> 200	–
CC(C)[C@H](CC(=O)NCCNc1cccc(Cl)c1)C(=O)N[C@H](C=O)CC(=O)O	7.95	9.02	> 200	> 200	> 200	> 200	–
Cc1c(CCNC(=O)C[C@H](C(=O)N[C@H](C=O)CC(=O)O)C(C)C)c2ccccc2n1C	7.37	9.05	> 200	> 200	> 200	> 200	–
CC(C)[C@H](CC(=O)NCCc1cccc2ccccc12)C(=O)N[C@H](C=O)CC(=O)O	8.24	9.24	> 200	> 200	> 200	> 200	–
CC(C)[C@H](CC(=O)NCCc1c[nH]c2ccccc12)C(=O)N[C@H](C=O)CC(=O)O	7.64	8.30	> 200	> 200	> 200	> 200	–
CC(C)[C@H](CC(=O)N1CCCC(Oc2ccccc2)C1)C(=O)N[C@H](C=O)CC(=O)O (stereo partly specified)	6.77	7.67	> 200	> 200	> 200	> 200	–
CC(C)[C@H](CC(=O)NCCC(=O)c1ccccc1)C(=O)N[C@H](C=O)CC(=O)O	6.40	6.93	> 200	> 200	> 200	> 200	–
CCO[C@H]1OC(=O)C[C@@H]1NC(=O)[C@@H](CC(=O)NCCc1cccc2ncccc12)C(C)C	–	–	> 200	> 200	> 200	> 200	4.3
CC(C)[C@H](CC(=O)NCCc1cc(N(C)C)nc2ccccc12)C(=O)N[C@H](C=O)CC(=O)O	8.44	8.52	> 200	> 200	> 200	> 200	–
